Three compounds from ChEMBL document CHEMBL1155913, “Novel anticancer agents, kayeassamins A and B from the flower of Kayea assamica of Myanmar” (2008) can be followed below.

Molecules are shown by their SMILES. Calls of active or inactive are those of the source. The rule behind the calls is not given here.

The test system of assay [1] is PANC-1. Description: Cytotoxicity against human PANC1 cells under nutrient-deprived medium after 24 hrs by serial dilution method. It is filed as functional.
Assay [2] relates to PANC-1. The experiment in a line: Selectivity index, ratio of PC100 for human PANC1 cells under nutrient-rich to nutrient-deprived medium. Type of assay: functional.
Assay [3] concerns PANC-1. Description: Inhibition of human PANC1 cells migration to pipette tip-induced wounds under nutrient-rich medium at 1 uM after 72 hrs by phase-contrast microscopy. Type of assay: functional, cell-based.
Assay [4] relates to PANC-1. The experiment in a line: Induction of apoptosis in human PANC1 cells under nutrient-deprived medium assessed as morphological changes at 1 uM after 24 hrs by phase-contrast microscopy. It is filed as functional, cell-based.

Take `COc1cc(C[C@H]2C(=O)OC[C@@H]2Cc2ccc(OC)c(OC)c2)ccc1O` [ARCTIGENIN]: the Cytotoxicity in the assay on PANC-1 [1] was found to be 1 µM.

`CCCC(=O)c1c(O)c(C/C=C(\C)CCC=C(C)C)c2oc(=O)cc([C@@H](O)CC)c2c1O` [KAYEASSAMIN B] had a Cytotoxicity with PANC-1 [1] of 1 µM. The Ratio with PANC-1 [2] is reported as 256. For the same compound, the outcome in the assay with PANC-1 [3] was inactive. In addition, the outcome in the assay with PANC-1 [4] was Active.

As to `CCCC(=O)c1c(O)c(C/C=C(\C)CCC=C(C)C)c(O)c2c([C@@H](O)CC)cc(=O)oc12` [KAYEASSAMIN A], in the assay with PANC-1 [1], the Cytotoxicity stood at 1 µM. For the same compound, the Ratio in the assay with PANC-1 [2] is 256. For the same compound, the result in the assay on PANC-1 [3] was inactive. Further, in the assay on PANC-1 [4], the outcome was Active.
